Results on three molecules are retold here after patent US11066379B2 (THE TEXAS A&M UNIVERSITY SYSTEM, priority 2018, dated 2021).

The test system of data set [1] is SH-SY5Y cells. Nature of the data set: Cellular toxicity in SH-SY5Y cells (MTT, 24 h). Format: cell-based. Particulars: 24 h; for cytotoxicity toward SH-SY5Y cells: 10-0.01 μM, in words. An excerpt: (§1) The MTT (3-[4,5-dimethylthiazol-2-yl]-2,5-diphenyltetrazoliumbromide) assay was used to determine the cytotoxicity of gracilin derivatives in T lymphocytes (Burton, J. D. Methods Mol. Med., 2005, 110, 69-78) and SH-SY5Y cells and the protective effect of these compounds against H2O2 insult in neuroblastoma cells as previously described (Leiros, M., Alonso, E., Sanchez, J. A., Rateb, M. E., Ebel, R., Houssen, W. E., Jaspars, M., Alfonso, A. and Botana, L. M. ACS Chem. Neurosci., 2014, S, 71-80). Human T lymphocytes were cultured in 24 well plates at the concentration of 2.5×10^6 cells/mL and exposed to different compound concentrations (0.01, 0.1, 1 and 10 μM) added to the culture medium. Human T cells were maintained in the presence of the pure compound at 37° C. in humidified 5% CO2/95% air atmosphere for 48 h.
(§2) SH-SY5Y cells were seeded in 96-well plates at a density of 2.5×10^5 cells/mL and allowed to adhere for 24 h. At first, cells were treated only with compounds at concentrations ranging from 10-0.01 μM for 24 h to determine their possible cytotoxic effects. Experiments were carried out three times. For neuroprotective experiments, cells were treated with compounds at non-toxic concentrations (1 μM→1 nM) and 150 μM H2O2 for 6 h. Briefly, cells were washed three times with saline solution and 200 μL of MTT (500 μg/mL) dissolved in saline buffer were added to each well. Following 1 h of incubation at 37° C., the cells were disaggregated with sodium dodecyl sulphate at 5%.
Absorbance of formazan crystals was measured at 595 nm with a spectrophotometer plate reader. Saponin was used as death control and its absorbance was subtracted from the other data. All experiments were performed four times.

Data set [2] has as its system SH-SY5Y cells. Nature of the data set: Neuroprotection against H2O2 toxicity, cell viability by MTT. Format: cell-based, human. As to conditions: 150 μM H2O2 co-treatment 6 h; 0.01, 0.1 and 1 μM. Here is the method:
as §2, with “5%. Absorbance of formazan crystals was measured at 595 nm with a spectrophotometer plate reader. Saponin was used as death control and its absorbance was subtracted from the other data. All experiments were performed four times.” for “5%.”

Data set [3] has as its system SH-SY5Y cells. Nature of the data set: Intracellular ROS levels (carboxy-H2DCFDA) after H2O2. It counts as cell-based, human. Particulars: 150 μM H2O2 co-treatment 6 h. Here is the method:
Intracellular levels of reactive oxygen species (ROS) were determined with carboxy-H2DCFDA (5-(and-6)-carboxy-2′,7′-dichlorodihydrofluorescein diacetate). This dye diffuses through the cellular membrane and is converted by cellular esterases to carboxy-H2DCFH (non-fluorescent). When carboxy-H2DCFH is oxidized by ROS, it becomes fluorescent (Halliwell, B. and Whiteman, M. Br. J. Pharmacol., 2004, 142, 231-255). Cells were seeded at a density of 2.5×10^5 cells/mL in 96-well plates and allowed to attach for 24 h. Following treatment with compounds at various concentrations (1 μM→1 nM) and 150 μM H2O2 for 6 h, SH-SY5Y cells were washed twice with serum-free culture medium. Then, carboxy-H2DCFDA 20 μM dissolved in serum-free culture medium was added to each well and the cells were incubated for 1 h at 37° C. After this incubation, the medium with the fluorescent dye was replaced with PBS and the plate was incubated for 30 min at 37° C. Fluorescence was read at 527 nm, with an excitation wavelength of 495 nm. All experiments were performed four times.

Data set [4] has as its system SH-SY5Y cells. Briefly: Glutathione assay (Thiol Tracker Violet) after H2O2. As to conditions: 150 μM H2O2 co-treatment 6 h, two or more concentrations. It counts as cell-based, human. Here is the method: Glutathione (GSH) levels were determined using Thiol Tracker Violet dye, which reacts with reduced thiols in cells. Reduced glutathione represents the majority of intracellular free thiols, so this probe can be used to estimate its levels in cells. Measurements were performed following manufacturer's protocol. Cells were seeded in 96-well plates at 2.5×10^5 cells/mL for 24 h and treated with compounds at various concentrations (1 μM→1 nM) and 150 μM H2O2. After 6 h, SH-SY5Y cells were washed twice with PBS and loaded with 100 μL of prewarmed Thiol Tracker Violet dye (10 μM) for 30 min at 37° C. The fluorescence was measured at 404 nm excitation and emission at 526 nm. All experiments were performed four times.

Data set [5] has as its system mitochondrial membrane permeability transition pore (mPTP) in SH-SY5Y cells. Briefly: Mitochondrial membrane permeability transition pore (mPTP) measurement, TBHP-induced opening. Format: cell-based, human. As to conditions: 1 mM TBHP. Here is the method:
The blockage of mPTP by compounds was determined with the MitoProbe Transition Assay Kit following manufacturer's instructions. Briefly, SH-SY5Y human neuroblastoma cells were re-suspended in pre-warmed PBS/Ca^+2 buffer at a final concentration of 1×10^6 cells/mL. Cells were loaded with 0.01 μM Calcein-AM and incubated at 37° C. for 15 min. Then, 0.4 mM CoCl2 and compounds at selected concentrations were added and incubated for 15 min at 37° C. […] After this incubation, cells were centrifuged and re-suspended in 100 μL of PBS. Just before analyzing, 1 mM tert-butyl hydroperoxide (TBHP) was added to the samples to induce pore opening. Fluorescence intensity was measured at 488 nm excitation and 517 nm emission wavelengths by flow cytometry using the ImageStreamMKII (Amnis Corporation, Merck-Millipore) and […] software. The fluorescence of 10,000 events was analyzed with IDEASR Application vs 6.0 (Amnis Corporation, Merck-Millipore). Experiments were carried out four times.

In the next data set the target is CypD (Homo sapiens, UniProt P30405). Nature of the data set: CypD enzyme inhibition assay (PPIase activity). Format: biochemical. Particulars: CypD 1 nM. Here is the method: The inhibition of the peptidyl-prolyl cis-trans isomerase (PPIase) activity of compounds was determined by following the rate of hydrolysis of N-succinyl-Ala-Ala-Pro-Phe-pnitroanilide by chymotrypsin. CsA was used as positive control. The assay was performed as previously described (Yan, W., Qing, J., Mei, H., Nong, J., Huang, J., Zhu, J., Jiang, H., Liu, L., Zhang, L. and Li, J. Bioorg. Med. Chem. Lett., 2015, 25, 5682-5686) with small modifications. The assay buffer (20 mM Tris-HCl, 50 mM NaCl, pH 7.8), CypD (1 nM) and the compounds at concentrations ranging from 0.001 to 10 μM were pre-cooled at 4° C. for 1 h. After that time, chymotrypsin at 0.4 mg/mL in 1 mM HCl was added to each well. The reaction was initiated by the addition of the peptide (0.1 mg/mL in 500 mM LiCl in THF). The absorbance at 380 nm was monitored every 30 sec for 5 min with a spectrophotometer plate reader. The blank rates of hydrolysis (in absence of CypD) were subtracted from the rates in the presence of the enzyme. The half-maximal inhibitory concentration (IC50) was calculated by fitting the data with a log(inhibitor) vs. response model of GraphPad Prism 5.0 software. All experiments were performed four times.
CypD, sequence (P30405 30-207): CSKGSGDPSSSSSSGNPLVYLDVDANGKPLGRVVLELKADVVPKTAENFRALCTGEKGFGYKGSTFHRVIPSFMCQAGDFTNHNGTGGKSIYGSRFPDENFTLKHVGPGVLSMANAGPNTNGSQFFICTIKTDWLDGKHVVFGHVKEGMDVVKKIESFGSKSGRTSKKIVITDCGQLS

The target in the next data set is T1, CypA (Homo sapiens, UniProt P62937).
T1 construct: Active human CypA full-length protein was from Abcam; purchased Abcam
T1 sequence (P62937 whole entry): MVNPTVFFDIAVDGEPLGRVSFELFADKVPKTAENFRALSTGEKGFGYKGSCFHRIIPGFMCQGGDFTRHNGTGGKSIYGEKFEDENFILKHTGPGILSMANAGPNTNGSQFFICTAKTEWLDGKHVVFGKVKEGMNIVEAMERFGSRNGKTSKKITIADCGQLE
Briefly: CypA PPIase activity inhibition. Particulars: up to 10 μM, in words. It counts as biochemical.

The next data set relates to SHSY5Y cells. Briefly: Neuroprotective effects summarised over all five assays (viability, TMRM, ROS, GSH, mPTP). As to conditions: 0.001, 0.01 or 0.1 μM; H2O2 challenge. Format: cell-based, human. Here is the method:
As described previously, neuroprotective agents can mediate their effects through inhibition of CypD, an isoform of CypA. […] All assays were performed at the indicated concentrations (0.001, 0.01, or 0.1 μM) based on initial cytotoxicity determined with SHSY5Y cells (Table 1).

Data set [6] addresses T2, active human CypA protein (Homo sapiens, UniProt P62937).
T2 construct: Active human CypA full-length protein was from Abcam; purchased Abcam
Nature of the data set: Binding to immobilized CypA by surface plasmon resonance (SPR). Particulars: SPR, immobilized CypA. Here is the method:
Sensor surface activation and ligand immobilization were performed by using HBS-EP as running buffer at a flow rate of 5 μL/min and 25° C. CM5 sensor chips were used as surface where Cyp A or D was immobilized as ligand. The CM5 chip is a glass slide coated with a thin layer of gold with a matrix of carboxymethylated dextran covalently attached. The CM5 chip was activated using an amine coupling kit. […] After activation, the ligand, 100 μg/mL of active human CypA protein dissolved in sodium acetate 10 mM at pH 4.5 was added to be immobilized over a CM5 sensor chip. Finally ethanolamine-HCl was injected to deactivate the remaining active esters and to avoid non-specific binding. […] Once analytes were tested and interaction was observed, individual binding curves were analyzed by determining the kinetic constants of analytes-CypA binding, namely, the observed rate constant (Kobs), the association rate constant (Kass), the dissociation rate constant (Kdiss), and the kinetic equilibrium dissociation constant (KD). At equilibrium, by definition, […]. The pseudo-first order association rate constants Kobs (s^-1) were determined for each compound concentration by using the 1:1 Langmuir association model of BiaEvaluation software (BiaCore, Uppsala, Sweden). Then a representation of Kobs against the corresponding concentration of each compound was done. […] From the equation of these representations, Kass, M^-1 s^-1, gradient of the plot, and […]^-1, intercept of the plot was obtained. Within these two values, the kinetic equilibrium dissociation constant KD for each analyte-CypA binding was obtained. The duration of the sample injection was 2 min at 10 μL/min flow rate. Next, dissociation of bound molecules in HBS-EP buffer flow was studied. The bound drugs were removed from the chip surface before the next injection by adding 1 M Glycine-HCl at pH 2.5 for 1 min. The association phase was used to quantify the compound-CypA or D interactions. All experiments were performed four times.
On the technique in general: Surface plasmon resonance follows binding to a sensor surface in real time, without labels.

For data set [7], the system named is Interleukin-2 (IL-2) production in human T lymphocytes. Nature of the data set: Interleukin-2 release in Con A-stimulated human T lymphocytes (ELISA). Format: cell-based. As to conditions: 2 h pre-treatment at non-toxic concentration, Con A 50 μg/mL 48 h. Here is the method:
Then, cells were stimulated with Concanavalin A (Con A) at 50 μg/mL for 48 h to induce IL-2 release. The amount of IL-2 released to the culture medium was evaluated using Human IL-2 ELISA kit. Experiments were carried out four times.
(In general: In an ELISA, binding on a coated surface is turned into a signal by an enzyme label.)

Data set [8] can be described thus: Viability of human T lymphocytes (MTT assay, 48 h). It counts as cell-based. As to conditions: human; 1 μM, 48 hours; read-out: decrease in cell viability.
Excerpt: as §1
(§3) Saponin was used as cellular death control and its absorbance was subtracted from the other data. After the incubation period with compounds, assay was performed. First cells were centrifuged (1500 rpm, 5 min, 4° C.). The pellets were resuspended in saline solution with MTT (250 μg/mL) and then incubated at 37° C. during 30 min. After washing off excess MTT twice with saline solution, cells were disaggregated with H2O and sonicated for 1 min and the absorbance of the colored formazan salt was measured at 595 nm in a spectrophotometer plate reader. All experiments were performed three times.
(In general: Tetrazolium dyes change colour on reduction, which living cells bring about.)

In another data set the test system is human T lymphocytes. Briefly: Viability of human T lymphocytes (MTT assay, 48 h). As to conditions: in words. It counts as cell-based.
Excerpt: as §1, §3

A further data set concerns the target EGF-R (Homo sapiens, UniProt P00533). As to conditions: 100 μM; cited from earlier work.

Several values for one entry are separate records, joined by “and”; a condition that tells them apart may be missing. Equal values may be shown once. Entries after “also recorded” stand apart in the source; their conditions may differ.

T2 sequence (P62937 whole entry): as above
EGF-R, sequence (P00533 25-1210, species assumed): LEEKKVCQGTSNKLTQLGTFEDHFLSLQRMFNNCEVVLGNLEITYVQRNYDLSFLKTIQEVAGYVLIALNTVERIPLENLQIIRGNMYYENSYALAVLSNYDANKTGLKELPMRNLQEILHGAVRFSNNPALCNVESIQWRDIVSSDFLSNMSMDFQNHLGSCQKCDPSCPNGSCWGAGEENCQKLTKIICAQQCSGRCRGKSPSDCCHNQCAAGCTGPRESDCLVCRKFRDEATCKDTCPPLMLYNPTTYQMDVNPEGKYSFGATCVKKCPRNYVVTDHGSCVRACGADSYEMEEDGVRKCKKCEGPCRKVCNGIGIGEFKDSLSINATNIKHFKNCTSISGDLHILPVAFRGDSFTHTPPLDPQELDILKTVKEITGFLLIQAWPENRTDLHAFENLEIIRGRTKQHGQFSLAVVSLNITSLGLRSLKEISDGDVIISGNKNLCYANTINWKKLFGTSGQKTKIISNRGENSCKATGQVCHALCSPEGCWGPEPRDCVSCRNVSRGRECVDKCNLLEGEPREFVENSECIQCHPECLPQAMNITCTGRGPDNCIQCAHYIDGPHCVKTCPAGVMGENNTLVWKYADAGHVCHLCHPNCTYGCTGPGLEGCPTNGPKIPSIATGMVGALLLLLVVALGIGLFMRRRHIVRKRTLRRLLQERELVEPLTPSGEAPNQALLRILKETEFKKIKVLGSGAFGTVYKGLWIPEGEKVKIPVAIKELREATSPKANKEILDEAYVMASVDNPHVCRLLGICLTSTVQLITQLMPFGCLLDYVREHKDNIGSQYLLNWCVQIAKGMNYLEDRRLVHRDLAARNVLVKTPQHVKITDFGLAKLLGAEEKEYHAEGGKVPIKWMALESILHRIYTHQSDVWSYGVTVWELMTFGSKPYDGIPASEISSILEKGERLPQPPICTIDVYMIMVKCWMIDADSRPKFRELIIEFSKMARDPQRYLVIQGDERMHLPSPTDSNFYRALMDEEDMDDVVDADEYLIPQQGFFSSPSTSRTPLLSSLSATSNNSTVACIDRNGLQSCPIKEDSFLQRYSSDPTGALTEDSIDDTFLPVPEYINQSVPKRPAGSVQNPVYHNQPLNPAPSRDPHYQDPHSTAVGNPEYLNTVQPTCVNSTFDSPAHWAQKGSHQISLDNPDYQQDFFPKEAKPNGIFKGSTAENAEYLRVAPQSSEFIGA

One may read the IC50 as the concentration that gives 50% inhibition. With `CC(=O)OC[C@@H]1CCC(C2(C)CCCCC2)=C[C@@H]1COC(C)=O` [Compound 27b, ((3S,4R)-1′-methyl-[1,1′-bi(cyclohexan)]-1-ene-3,4-diyl)bis(methylene) diacetate], the “cytotoxicity toward SH-SY5Y cells” value with SH-SY5Y cells [1] is “led to cell death at the higher concentrations tested”. Moreover, the “protection of cell viability against H2O2 insult” value with SH-SY5Y cells [2] is “protected cells against H2O2 insult at almost all concentrations”. Further, the ROS levels entry with SH-SY5Y cells [3] is on record as “diminishing ROS at two or three concentrations”. For the same molecule, the GSH levels result in the data set with SH-SY5Y cells [4] is given as “recovered GSH levels”. In data set [5], the mPTP opening entry is “prevent TBHP-induced opening”. Moreover, on CypD, the IC50 is 0.48 µM and < 0.5 µM. Moreover, on CypA, the “CypA PPIase inhibitory activity” value is “inactive”. In addition, the “neuroprotective / antioxidant effects based on all five assays” value with SHSY5Y cells is listed as “displayed significant neuroprotective effects; also recorded: significant antioxidant activity in all five assays”.
As usually defined, the Kd is the concentration at which binding is half-saturated. Read a low Kd as a tighter complex. `CC(=O)O[C@H]1OC[C@@H]2C=C([C@]3(C)CCCC(C)(C)C3)CC[C@H]12` [Compound 29b, (1R,3aR,7aS)-5-(1,3,3-trimethylcyclohexyl)-1,3,3a,6,7,7a-hexahydroisobenzofuran-1-yl acetate]: the equilibrium dissociation constant (Kd) in data set [6] was ~3 µM and 2.8 to 6.8 µM. The “Inhibition of IL-2 production” value in data set [7] is roughly 0%. In data set [8], the cytotoxicity at 48 h, 1 μM is 15 to 25%. The “impact on T-cell viability” value in the data set on human T lymphocytes is on record as “relatively non-toxic”. The “cytotoxicity toward SH-SY5Y cells” value in the data set with SH-SY5Y cells [1] is on record as “led to cell death at the higher concentrations tested”. The IC50 with SH-SY5Y cells [1] (Homo sapiens, SH-SY5Y, read-out: IC50 (cellular toxicity)) was 7.9 µM.
`C/C=C1\C([C@@]2(C)CCCC(C)(C)C2)=CC[C@H]2[C@H](OC(C)=O)O[C@H](OC(C)=O)[C@@H]12` [gracilin A, reference compound]: the affinity in [6], expressed as Kd, was 2.53 ± 0.4 µM. Besides, the EGF-R inhibition at EGF-R is 70%.
